The values that follow come from publication PMC11887451, “Leveraging Immunogenic Cell Death to Enhance the Immune Response against Malignant Pleural Mesothelioma Tumors” (Journal of the American Chemical Society, 2025).

Data set [1] is described as follows: Aqueous stability by RP-HPLC in 1:1 DMSO:H2O over 72 h. It counts as physicochemical. The following applies: room temperature. The method, then: The aqueous stability of the Au(III)–DTC complexes was assessed by monitoring their RP-HPLC profiles in a 1:1 DMSO:H2O mixture at room temperature over a 3-day period (Supplementary Figures 112–146).
Determination of the purity of cyclometalated Au( III) complexes was performed using analytical HPLC on a Shimadzu Prominence System equipped with a DGU -20A3 Degasser, two LC-20AD Liquid Chromatography Pump, a SPD-20A UV/Vis Detector and a Shim Pack GVP-ODS 2.0 mm 18 column ([…], 120Å, 250 mm × 4.60 mm i.d.). The analysis was conducted at r.t. with a flow rate of 1.0 mL/min and detection at 254 and 280 nm. Mobile phase A was H2O + 0.1% Trifluoroacetic acid (TFA) while mobile phase B is ACN + 0.1% TFA. The gradient program parameters were as follows: mobil e phase B was increased from 30 to 95% over 30 min. 95% mobile phase B was maintained for 10 min, 95 to 30% over 5 min, and finally returned to 30% for 10 min for the next analysis. LogP values of the complexes were calculated based on the HPLC retention times derived from the calibration standard curve. The calibration standard curve was established using 2-butanone, phenylacetonitrile, anisole, ethyl benzoate, benzophenone, diphenyl ether and triphenylamine. To conduct an aqueous stability study, the HPLC profiles of the sample stock solutions were diluted to a 1:1 ratio of DMSO to […]
water. […]

The subject of data set [2] is AB12 cells in BALB/c mice. The experiment in a line: In vivo vaccination model. Particulars: within the first 30 days after vaccination, n = 8. Also on record: species or system mouse.
Description: Initially, AB12 cells underwent pretreatment with varying concentrations of Au(III) complexes, and the induced cell death and release of desired ICD biomarkers were monitored over time. Upon reaching a cell death rate of 65%–75%, BALB/c mice (n = 8) were subcutaneously injected in the left flank with a vaccine containing 3 × 10^5 of live/dying/dead cells, while the vehicle group received injections of PBS. Seven days postvaccine administration, the immunized mice were rechallenged by inoculating the same number of live AB12 cells (without any prior treatment) into the right flanks (Figure 5A). The progression of tumor growth on the right flanks was monitored using a caliper.
AB12 cells were seeded into Cellstar 24-well plates (Greiner Bio-One) at a density of 1.8 × 104
cells/ml (1 ml per well) and allowed to grow exponentially for 16 hours. Subsequently, the
medium was replaced with 1 ml of fresh medium containing compounds of interest at
predetermined concentrations (with a minimum of 4 wells per treatment condition). These
concentrations were selected to induce 65-75% cell death.
Subsequently, the culture
medium was aspirated, and the cells were washed twice with 1 mL of PBS. The cell
concentration was adjusted to 3 × 10^5 cells (including dead/dying/live cells) per 100 μL of PBS,
and the ratio of dead/live cells was assessed using the Invitrogen Countess 3 cell counter. In
the subsequent experiment, BALB/c mice (8 mice per group) were subcutaneously injected
with 0.1 mL of AB12 cells (3 × 10^5 cells/mL, including dead/dying/live cells) or the
corresponding vehicle (PBS) on the left flank. Tumor growth was monitored daily.
After 7 days, the mice were subcutaneously injected with
0.1 mL of AB12 cells (3 × 10^5 cells/mL, live cells) on the right flank. Regular measurements
of body weights and tumor sizes were taken. Mice that developed palpable tumors were
euthanized for further analysis.
Data set [3] has as its system human nonmalignant mesothelioma cell line Met5A. The data set is described as follows: MTT cytotoxicity assay, 72 h, Met5A. It counts as cell-based. Particulars: exposure time 72 h. On the technique in general: Tetrazolium dyes change colour on reduction, which living cells bring about.
Description: Cell lines and culture conditions
(§1) Mouse malignant mesothelioma cancer cell line AB12, human nonmalignant mesothelioma cancer cell line Met5A (mesothelial cells), mouse macrophage cell line J774 and human monocytic cell line THP-1 were obtained from American Type Culture Collection (ATCC) (Rockville, MD, USA). Human malignant mesothelioma cell lines VMC23 (epithelial), Meso82 (sarcomatous), Meso92 (biphasic), were kindly provided by Prof. Walter Berger (Medical University of Vienna). All cells except for J774 were cultured in RPMI and J774 cells were cultured in DMEM. Both types of media were supplemented with 10% FBS and 1% penicillin-streptomycin (10,000 U/mL). Cells were grown in tissue culture flasks (75 cm2 and 25 cm2, SPL Life Sciences Co., Ltd., Korea). All cell lines were grown at 37 °C in a humidified atmosphere of 95% air and 5% CO 2 and passaged when they reached 80–90% confluency. All Au stock solutions were prepared in 1% DMSO in the respected medium, ensuring that cell viability was not inhibited. The Au concentration in the stock solutions was confirmed through inductively coupled plasma optical emission spectrometry. The stock solution of pemetrexed (10 mM) was prepared in Milli -Q water.
Inhibition of c ell viability assay
(§2) The cytotoxicity of compounds was determined using an MTT colorimetric test. The cells were harvested from culture flasks by trypsinization and seeded into Cellstar 96 -well microculture plates (Greiner Bio -One) at the seeding density of 6000 cells per well (6 × 10^4 cells/mL). After
(§3) the cells were allowed to resume exponential growth for 16 h, they were exposed to drugs at
(§4) different concentrations in media for 72 h. The drugs were diluted in a complete medium at the desired concentration added to each well (100 μL) and serially diluted in other wells. After exposure for 72 h, the media was replaced with MTT in media (5 mg/mL, 100 μL/well) and
(§5) incubated for an additional 50 min. Subsequently, the medium was aspirated, and the purple formazan crystals formed in viable cells were dissolved in DMSO (100 μL/well). Optical densities were measured at 570 nm using a BioTek Synergy H1 microplate and MultiskanTM SkyHigh plate readers. The quantity of viable cells was expressed in terms of treated/control (T/C) values in comparison to untreated control cells, and 50% inhibitory concentrations (IC 50) were calculated from concentration-effect curves by interpolation. An evaluation was based on means from at least three independent experiments, each comprising three replicat es per
Data set [4] concerns patient-derived Meso92 cell line (biphasic MPM). The data set is described as follows: MTT cytotoxicity assay, 72 h, Meso92. Particulars: exposure time 72 h. The data set is classed as cell-based, human.
Description: Cell lines and culture conditions
as §1
Inhibition of c ell viability assay
as §2, §3, §4, §5
For data set [5], the system named is AB12 cells phagocytosed by J774 macrophages. The data set is described as follows: Phagocytosis assay, flow cytometry. The data set is classed as cell-based, mouse. Particulars: AB12 treated 100 min at 5 × IC50 (72 h), 16 h with J774 macrophages. Here is the method:
page 21: incubated for an additional 50 min. Subsequently, the medium was aspirated, and the purple formazan crystals formed in viable cells were dissolved in DMSO (100 μL/well). Optical densities were measured at 570 nm using a BioTek Synergy H1 microplate and MultiskanTM SkyHigh plate readers. The quantity of viable cells was expressed in terms of treated/control (T/C) values in comparison to untreated control cells, and 50% inhibitory concentrations (IC 50) were calculated from concentration-effect curves by interpolation. An evaluation was based on means from at least three independent experiments, each comprising three […] concentration level. For macrophage analyses, the acute monocytic leukemia -derived THP-1 cell line (ATCC) was used as a model. 1 × 104 THP-1 cells were seeded per well in 96-well plates in RPMI-1640 with 10% FCS and treated for 24 h with 75 nM phorbol 12-myristate 13-acetate (PMA, Sigma- Aldrich) to induce M0 macrophage differentiation. After the differentiation period, PMA was replaced by fresh culture medium to recover for 2h. Afterwards increasing concentrations of 1G, 5A, 5B and 5G were added for a 72-h continuous drug exposure assay. In parallel, the […] were allowed to attach for 24 h. Gold compounds were added to the cells as described for the THP-1 model above. After the incubation period of 72 h, cell viability was determined by an MTT-based assay (EU4U, Biomedica) following the instructions of the manufacturer. DMSO had not impact on the cell viability at the concentrations used. Flow cytometry experiments Phagocytosis assay […] with RPMI, centrifuged (300 × g, 5 min) and labelled with CellTracker Red CMTPX Dye (0.72 μM for 5 × 10^5 cells) at 37°C for 30 minutes in 1 ml of serum -free RPMI. Following S21 page 22: centrifugation of the cells (300 × g, 5 min), 5 ml of fresh RPMI was introduced, and the cells were seeded at a density of 5 x 10^5 cells per well into Cellstar 6-well plates (Greiner Bio-One) (1 ml per well). J774 macrophages (70-80% confluence in a T75 flask) were detached by scraping, centrifuged (300 × g, 5 min). The medium was substituted with 1 ml of DMEM containing CellTracker Green CMFDA (1 μM) and the J774 macrophages were stained at 37°C for 30 minutes. Following centrifugation of the J774 macrophages (300 × g, 5 min), 5 ml of fresh DMEM was introduced, and the macrophages were seeded into a 100 cm2 petri dish (SPL Life Sciences, Korea). After 24 h, the media in AB12 cells was replaced with 1 ml of fresh […] for 100 minutes. After removing the drug-containing media, the cells were trypsinized (0.5 ml), neutralized with 1 ml of RPMI, centrifuged (300 × g, 5 min) and counted. From each sample, […] cells into 6-well plates. AB12 cells and J774 macrophages were co-incubated for 16 h at 37°C and 5% CO2, detached by scraping, centrifuged (300 × g, 5 min), and the pellets were resuspended in PBS for immediate analysis using a CytoFLEX Flow Cytometer (Beckman Coulter, USA). The percentage of phagocytosis was determined by calculating the number of double-positive macrophages (Q2) over the total number of macrophages (Q2 + Q3). […] Annexin V/PI assay AB12 cells were seeded into Cellstar 6-well plates (Greiner Bio-One) at a density of 5 × 10^5 cells/well (1 ml per well). […] The medium was removed and cells were washed with PBS (2 × 1 mL). Afterwards the cells were […] S22
(In general: In flow cytometry, cells or beads pass a laser one at a time.)

Data set [6] relates to human malignant mesothelioma cell line JU77. The experiment in a line: MTT cytotoxicity assay, 72 h, JU77. The data set is classed as cell-based. Particulars: exposure time 72 h.
Description: (§6) Human malignant mesothelioma cancer cell lines JU77 and LO68 were obtained from Cell Bank Australia (Children's Medical Research Institute, Westmead, Australia). Mouse malignant mesothelioma cancer cell line AB12, human nonmalignant mesothelioma cancer cell line Met5A (mesothelial cells), mouse macrophage cell line J774 and human monocytic cell line THP-1 were obtained from American Type Culture Collection (ATCC) (Rockville, MD, USA). Human malignant mesothelioma cell lines VMC23 (epithelial), Meso82 (sarcomatous), Meso92 (biphasic), were kindly provided by Prof. Walter Berger (Medical University of Vienna). All cells except for J774 were cultured in RPMI and J774 cells were cultured in DMEM. Both types of media were supplemented with 10% FBS and 1% penicillin-streptomycin (10,000 U/mL). Cells were grown in tissue culture flasks (75 cm2 and 25 cm2, SPL Life Sciences Co., Ltd., Korea). All cell lines were grown at 37 °C in a humidified atmosphere of 95% air and 5% CO 2 and passaged when they reached 80–90% confluency. All Au stock solutions were prepared in 1% DMSO in the respected medium, ensuring that cell viability was not inhibited.
as §2, §3, §4, §5
The test system of data set [7] is calreticulin (CRT) in AB12 cells. Particulars: AB12, 5 × IC50, 120 min.
Protocol: emission was detected at 525/40 nm for FITC (CRT).
Confocal microscopy experiments
AB12 cells were seeded into confocal dishes (Biosharp) at a density of 3 × 10^5 cells/dish (1
mL per dish). The cells were allowed to resume exponential growth for 16 h. Afterwards, the
cells were incubated with a fresh medium containing compounds at their respective 5 × IC50
concentrations for 2 h at 37°C. After the treatment, the dishes were washed with 1 ml of PBS,
fixed in 4% paraformaldehyde in PBS at r. t. for 20 min and washed twice with 1 mL of PBS.
The dishes were then incubated with CRT antibody conjugated with Alexa Fluor 488 (1:200 in
the dishes were incubated with Wheat Germ Agglutinin conjugated with Alexa Fluor 633 dye
(W21404, Invitrogen) at r. t. in darkness for 30 min, washed with 1 mL of PBS, stained with
propidium iodide (PI) for 10 min at r. t. in darkness and washed with 1 mL of PBS. Samples
Data set [8] relates to human malignant mesothelioma cell line LO68. The data set is described as follows: MTT cytotoxicity assay, 72 h, LO68. The data set is classed as cell-based. The following applies: exposure time 72 h.
Description: as §6, §2, §3, §4, §5
Data set [9] has as its system patient-derived VMC23 cell line (epithelioid MPM). The data set is described as follows: MTT cytotoxicity assay, 72 h, VMC23. It counts as cell-based, human. Particulars: exposure time 72 h.
Description: as §6, §2, §3, §4, §5
For data set [10], the system named is murine malignant mesothelioma cell line AB12. The data set is described as follows: MTT cytotoxicity assay, 72 h, AB12. It counts as cell-based, mouse. The following applies: exposure time 72 h.
The test system of data set [11] is patient-derived Meso84 cell line (sarcomatoid MPM). The experiment in a line: MTT cytotoxicity assay, 72 h, Meso84. The following applies: exposure time 72 h. It counts as cell-based, human.
Description: as §6, §2, §3, §4, §5
For another data set, the system named is HMGB1 in AB12 cells. The experiment in a line: HMGB1 detection, confocal microscopy. Particulars: AB12, 5 × IC50. The data set is classed as cell-based, mouse. The method, then: mL per dish). […] Afterwards, the […]
concentrations for 2 h at 37°C. […]
were stored in 1 mL of PBS. The confocal images were acquired by Laser Confocal Scanning […]
dishes were washed twice with 1 mL of PBS. The dishes were then incubated with HMGB1 […]
washed with 1 mL of PBS. Samples were stored in 1 mL of PBS. The confocal images were acquired by Laser Confocal Scanning Microscope (Leica SPE).
AB12 cells were seeded into the confocal dish (Biosharp) at a density of 3 × 10^5 cells/well (1 […]
mL per well). […] The cell culture […]
medium was aspirated and washed with PBS (2 × 1 ml). In a dimly lit setting, a solution of H2DCFDA (2',7'-dichlorodihydrofluorescein diacetate) in 1 × HBSS (10 μM, 1 mL) was added to each well and allowed to incubate for 15 min at 37 °C. Following this, the H 2DCFDA solution was aspirated and the wells were rinsed with HBSS (2 × 1 ml). Subsequently, the cells were treated with fresh colo urless cell culture medium containing compounds of interest at […]
Subsequently, the cells were treated with a culture medium containing 1 μM of Mitotracker TM Deep Red, 1 μM ER-Tracker™ Blue-White DPX and 1 μg/mL of Hoechst 33342 for 30 minutes. […] Images were captured using Laser Confocal Scanning Microscope (Leica SPE) and analyzed using the Microscope Software Platform LAS X Life Science. […]

Data set [12] deals with extracellular HMGB1 from AB12 cells. The data set is described as follows: Western blot of extracellular HMGB1 in supernatants. It counts as cell-based, mouse. The following applies: AB12, 5 × IC50, 240 min. The method, then:
cells were lysed with 200 µL of RIPA buffer, scraped, collected into 2 mL microtubes, sonicated for 45 sec on ice and centrifuged at 12000 × g for 20 min at 4 °C.
Protein concentration was measured by BCA Protein Assay Kit (PierceTM). 30 µg protein were reconstituted in loading buffer (5× Laemmli Buffer with 5% DTT) and heated at 95 °C for 10 min. Subsequently, the protein mixtures were resolved on 10% SDS-PAGE gels (BeyoGelTM)by electrophoresis ( 80 V for 20 min followed by 1 00 V for 60 min) and transferred onto a nitrocellulose membrane (250 mA for 2 h).
For Western Blot detection of extracellular HMGB1 protein, AB12 cells were seeded into Cellstar 6-well plates (Greiner Bio -One) at a density of 1 × 10^6 cells/well (2 ml per well). […]
After incubation with HRP-conjugated secondary antibodies (Catalogue Number: 7074P2, Cell Signaling Technology) in 2% BSA (w/v) in wash buffer at RT for 2 h, the membranes were washed with wash buffer 3 times for 5-10 min. Immune complexes were detected with SuperSignal™ West Atto Ultimate Sensitivity Substrate (A38554, Thermo Scientific) and analyzed using enhanced chemiluminescence imaging (Biorad). β-Actin was used as a loading control. […]
GA5010)). Luminescence was measured using Molecular Devices SpectraMax iD5 plate reader. […] The luminescence data was recorded for a total duration of 6 h following the treatment. […]

Another data set concerns colon cancer cells. Also on record: method as in PMID 33237764. The following applies: immunocompetent mice; cited from earlier work.

For `CCCC[N+](CCCC)=C1[S][Au-]2([S]1)[c]1ccccc1C(OC)c1cccc[n+]12.F[P-](F)(F)(F)(F)F` (racemic) [4C], the “hydrolysis over the 72-h period” value in data set [1] is listed as “less than 10%”. In addition, the “minor RP-HPLC peak, share of the total area after 24 h” value in data set [1] (24 h) amounted to 2%. Further, the “minor RP-HPLC peak, share of the total area after 72 h” value in data set [1] (72 h) came to 8%. The “mice that developed tumors after vaccination” value in data set [2] was “≈ 50%”. Moreover, the IC50 in data set [3] was 3000 ± 700 nM; in data set [4] it was 4500 ± 800 nM; in data set [6], 1600 ± 100 nM; in data set [8] it was 3100 ± 300 nM; in data set [9] it was 2500 ± 200 nM; in data set [10], 3100 ± 400 nM. This compound yielded an IC50 in [11] of 2700 ± 800 nM. Further, the phagocytosis rate in data set [5] is 37% ± 12%. Moreover, the “CRT translocation, confocal microscopy” value in [7] was “translocation of CRT to the plasma membrane”.
`CCCC[N+](CCCC)=C1[S][Au-]2([S]1)[c]1ccccc1Cc1cccc[n+]12.F[P-](F)(F)(F)(F)F` (stereo not shown) [2C]: the “mice that developed tumors after vaccination” value in data set [2] is recorded as “≈ 50%”. Moreover, the IC50 was 1400 nM in data set [3]; 3100 ± 700 nM in [4]; 2700 ± 400 nM in [6]; 3000 ± 300 nM in data set [8]; 2400 ± 500 nM in [9]; 2700 ± 300 nM in data set [10]. The IC50 in [11] is 3900 ± 700 nM. Besides, in the data set on HMGB1 in AB12 cells, the “HMGB1 expression, confocal microscopy” value is “confirmed by confocal microscopy”. Besides, the “extracellular HMGB1 in supernatant, Western Blot” value in data set [12] is “presence of extracellular HMGB1”.
Turning to `Cc1cc(C)c(-n2cc[n+](CCO)[c]2[Au-][c]2n(-c3c(C(C)C)cccc3C(C)C)c3c([n+]2-c2c(C(C)C)cccc2C(C)C)C(=O)c2ccccc2C3=O)c(C)c1` [Au1], in the data set with colon cancer cells, the “tumor-free time of vaccinated mice” value is reported as “more than 42 days”.
`COc1cccc2c1C(=O)c1c(O)c3c(c(O)c1C2=O)C[C@@](O)(C(=O)CO)C[C@@H]3O[C@H]1C[C@H](N)[C@H](O)[C@H](C)O1` [doxorubicin] displayed a chromatographic logP in “physchem” of 0.68.

Broadly, the IC50 is the concentration at which inhibition is half-maximal. Low readings indicate greater potency, high ones weaker potency. By chromatographic logP is commonly meant lipophilicity estimated from chromatographic retention.
